“Also recorded” adds a separate entry of the source. Marks after values point to notes of the source that are not given here.
Experiments:
Caco-2 cell monolayers = details: ref Lu et al., 2008, Liu et al., 2009, Hu et al., 2014, Bowles et al., 2017, cited from earlier work; for Papp(apical→basolateral) / Papp(basolateral→apical): Caco-2 cell monolayers, from literature; for apparent permeability in Caco-2 cell monolayers: previous results
[1] = Aqueous solubility test (vortexing in water); format: physicochemical; details: thermodynamic from solid; determined, water, 25 °C, 1 atm
Method: Aqueous solubility (S) test of the 17 ingredients was performed by vortexing 10 mg of each ingredient in […] water in a test tube at ambient temperature and 1 atm. After vortexing for 5 min, if the solution is clear, the tested object will be considered as soluble in water. In silico assessment of the physicochemical properties governing permeation and intestinal absorption was carried out for the 17 ingredients studied. Theory aqueous solubility (S) was calculated with ALOGPS 2.1 online software via the Virtual Computational Chemistry Laboratory service (Chemoinformatics Group, Neuherberg, Germany) (VCCLAB^1). The octanol–water partition coefficient (cLogP), the total hydrogen bond count (donors and acceptors), and topological polar surface area (TPSA) were determined using the Molinspiration Property Calculator (Molinspiration Cheminformatics, Bratislava, Slovak Republic^2). Lipinski’s rule of 5 was used to predict the permeability of the compound ([Lipinski et al., 2001]).

[2] = Multiple component PK study in rat plasma after p.o. GDDP (HPLC-MS); details: for determination in rat plasma at the planned successive PK time points / detection in rat plasma: GDDP 0.8 g/kg p.o.; for determination in rat plasma at the planned successive PK time points: 5, 10, 15, 30, 45, 60, and 120 min, LOQ 1.0–1.4 ng/mL; for detection in rat plasma: at 5, 10, 15, 30, 45, or 60 min, LOD 0.5–0.7 ng/mL; for AUC(0-inf) / AUC(0-t) / MRT inf / MRT last / Tmax / Cmax / half-life: Sprague-Dawley, rat, plasma, po
[3] = test system: isoprenaline-induced MI in mice; assay: In vivo anti-MI study: isoprenaline-induced myocardial injury (ECG, H&E histology); details: for Histopathology of heart tissue (H&E): 40 mg/kg; for ECG (lead II) findings on the fifth day of the trial: 40 mg/kg p.o., isoprenaline 5 mg/kg on days 4 and 5
[4] = Stability tests in rat plasma (QC samples, HPLC-MS); details: n=5
Description: Accuracy and precision were expressed by relative error (RE) and coefficient of variance (RSD), respectively.

[5] = 0.4 g/kg, Cmax, rat plasma, GDDP 0.4 g/kg p.o. (Low dose group), n=3
[6] = 0.4 g/kg, t1/2 β, rat plasma, GDDP 0.4 g/kg p.o. (Low dose group), n=3
[7] = 0.8 g/kg, Cmax (high / low plasma drug concentrations), rats, GDDP 0.4 and 0.8 g/kg p.o., classification
[8] = 0.8 g/kg, Cmax, rat plasma, GDDP 0.8 g/kg p.o. (High dose group), n=3
[9] = 0.8 g/kg, t1/2 β (fast / slow elimination type), rats, GDDP 0.4 and 0.8 g/kg p.o., classification
[10] = 0.8 g/kg, t1/2 β, rat plasma, GDDP 0.8 g/kg p.o. (High dose group), n=3
[11] = rat plasma, GDDP 0.4 g/kg p.o. (Low dose group), n=3
[12] = rat plasma, GDDP 0.8 g/kg p.o. (High dose group), n=3
[13] = 40 mg/kg p.o. for 7 days, isoprenaline-induced MI
[14] = 24h in auto-sampler vials, spiked 2 ng/mL
[15] = 24h in auto-sampler vials, spiked 400 ng/mL
[16] = 24h in auto-sampler vials, spiked 1600 ng/mL
[17] = Placing plasma for 6h at 4°C, spiked 2 ng/mL
[18] = Placing plasma for 6h at 4°C, spiked 400 ng/mL
[19] = Placing plasma for 6h at 4°C, spiked 1600 ng/mL
[20] = three freeze-thaw cycles, rat plasma, spiked 2 ng/mL
[21] = three freeze-thaw cycles, rat plasma, spiked 400 ng/mL
[22] = three freeze-thaw cycles, rat plasma, spiked 1600 ng/mL

## CC(C)=CCC[C@](C)(O[C@@H]1O[C@H](CO)[C@@H](O)[C@H](O)[C@H]1O)[C@H]1CC[C@]2(C)[C@@H]1[C@H](O)C[C@@H]1[C@@]3(C)CC[C@H](O)C(C)(C)[C@@H]3[C@@H](O[C@@H]3O[C@H](CO)[C@@H](O)[C@H](O)[C@H]3O[C@@H]3OC[C@@H](O)[C@H](O)[C@H]3O)C[C@]12C [R1, notoginsenoside R1]
Caco-2 cell monolayers
  Papp(apical→basolateral): > 0.1^c ×10^-6 cm/s
  Papp(basolateral→apical): > 0.1^c ×10^-6 cm/s
  apparent permeability in Caco-2 cell monolayers: > 10^-7 cm/s
[1]
  solubility at 5 min: > 10000 µg/mL
[2]
  determination in rat plasma at the planned successive PK time points: could be determined
  detection in rat plasma: could be detected
[2]; 0.4 g/kg
  AUC(0-inf): 171 ± 92.6 ng·h/mL
  AUC(0-t): 146 ± 58.9 ng·h/mL
  MRT inf: 1.31 ± 0.11 h
  MRT last: 1.1 ± 0.12 h
  Tmax: 0.51 ± 0.7 h
[2]; [5]
  Cmax: 167 ± 48 ng/mL
[2]; [6]
  half-life: 34.2 min
[2]; 0.8 g/kg
  AUC(0-inf): 168 ± 119 ng·h/mL
  AUC(0-t): 120 ± 117 ng·h/mL
  MRT inf: 1.92 ± 1.59 h
  MRT last: 0.89 ± 0.14 h
  Tmax: 0.75 h
[2]; [7]
  Cmax: > 20 ng/mL
[2]; [8]
  Cmax: 259 ± 342 ng/mL
[2]; [9]
  half-life: < 120 min
[2]; [10]
  half-life: 27 min
[2]; [11]
  Cltot: 3.34 ± 1.81 L/h/kg
[2]; [12]
  Cltot: 10.89 ± 11.27 L/h/kg
[3]; [13]
  Histopathology of heart tissue (H&E): remarkably severe histological damage with extensive myocardial lysis and architecture wrecking; also recorded: extremely severe histological damage with extensive myocardial lysis and architecture wrecking
[3]
  ECG (lead II) findings on the fifth day of the trial: T waves reversed or decreased
[4]; [14]
  Stability: Measured: 1.89 ± 0.51 ng/mL
  Stability: RE: -5.63%
[4]; [15]
  Stability: Measured: 395.76 ± 7.32 ng/mL
  Stability: RE: -1.06%
[4]; [16]
  Stability: Measured: 1619.10 ± 82.22 ng/mL
  Stability: RE: 1.19%
[4]; [17]
  Stability: Measured: 1.75 ± 0.34 ng/mL
  Stability: RE: -12.56%
[4]; [18]
  Stability: Measured: 387.55 ± 18.40 ng/mL
  Stability: RE: -3.11%
[4]; [19]
  Stability: Measured: 1698.54 ± 105.94 ng/mL
  Stability: RE: 6.16%
[4]; [20]
  Stability: Measured: 2.15 ± 0.21 ng/mL
  Stability: RE: 7.54%
[4]; [21]
  Stability: Measured: 395.28 ± 15.09 ng/mL
  Stability: RE: -1.18%
[4]; [22]
  Stability: Measured: 1784.04 ± 71.20 ng/mL
  Stability: RE: 11.50%

## CC(C)=CCC[C@](C)(O[C@@H]1O[C@H](CO[C@@H]2O[C@H](CO)[C@@H](O)[C@H](O)[C@H]2O)[C@@H](O)[C@H](O)[C@H]1O)[C@H]1CC[C@]2(C)[C@@H]1[C@H](O)C[C@@H]1[C@@]3(C)CC[C@H](O[C@@H]4O[C@H](CO)[C@@H](O)[C@H](O)[C@H]4O[C@@H]4O[C@H](CO)[C@@H](O)[C@H](O)[C@H]4O)C(C)(C)[C@@H]3CC[C@]12C [Rb1, ginsenoside Rb1]
Caco-2 cell monolayers
  Papp(apical→basolateral): > 0.1^c ×10^-6 cm/s
  Papp(basolateral→apical): > 0.1^c ×10^-6 cm/s
  apparent permeability in Caco-2 cell monolayers: > 10^-7 cm/s
[1]
  solubility at 5 min: > 10000 µg/mL
[2]
  determination in rat plasma at the planned successive PK time points: could be determined
  detection in rat plasma: could be detected
[2]; 0.4 g/kg
  AUC(0-inf): 1930 ± 1300 ng·h/mL
  AUC(0-t): 818 ± 272 ng·h/mL
  MRT inf: 36.6 ± 17.7 h
  MRT last: 11.42 ± 0.11 h
  Tmax: 3.25 ± 3.89 h
[2]; [5]
  Cmax: 57 ± 27.3 ng/mL
[2]; [6]
  half-life: 1380 ± 742 min
[2]; 0.8 g/kg
  AUC(0-inf): 1350 ± 486 ng·h/mL
  AUC(0-t): 998 ± 200 ng·h/mL
  MRT inf: 17.1 ± 4.98 h
  MRT last: 9.63 ± 0.6 h
  Tmax: 3.34 ± 3.05 h
[2]; [7]
  Cmax: > 20 ng/mL
[2]; [8]
  Cmax: 80.3 ± 19.2 ng/mL
[2]; [9]
  half-life: > 156 min
[2]; [10]
  half-life: 649 ± 242 min
[2]; [11]
  Cltot: 1.08 ± 0.72 L/h/kg
[2]; [12]
  Cltot: 2.59 ± 0.81 L/h/kg
[2]; rats, p.o. GDDP, P < 0.05
  systematic exposure (AUC0-∞), times higher than those of CTS and DHTS: 84–1137 times
  systematic exposure (AUC0-∞), times higher than those of Rd, R1, Rg1, TS IIA, and TS I: 3.5–30 times
[3]; [13]
  anti-MI effect (overall conclusion): favorable anti-MI effect
  Histopathology of heart tissue (H&E): less severe histological damage with mild cell distortion, edema, and good continuity with adjacent myofibrils
[3]
  ECG (lead II) findings on the fifth day of the trial: T waves reversed or decreased
[4]; [14]
  Stability: Measured: 1.97 ± 0.29 ng/mL
  Stability: RE: -1.62%
[4]; [15]
  Stability: Measured: 386.10 ± 20.53 ng/mL
  Stability: RE: -3.47%
[4]; [16]
  Stability: Measured: 1540.64 ± 55.53 ng/mL
  Stability: RE: -3.71%
[4]; [17]
  Stability: Measured: 1.66 ± 0.17 ng/mL
  Stability: RE: -16.86%
[4]; [18]
  Stability: Measured: 376.87 ± 18.97 ng/mL
  Stability: RE: -5.78%
[4]; [19]
  Stability: Measured: 1647.48 ± 31.81 ng/mL
  Stability: RE: 2.97%
[4]; [20]
  Stability: Measured: 1.75 ± 0.23 ng/mL
  Stability: RE: -12.42%
[4]; [21]
  Stability: Measured: 394.28 ± 21.32 ng/mL
  Stability: RE: -1.43%
[4]; [22]
  Stability: Measured: 1601.88 ± 26.56 ng/mL
  Stability: RE: 0.12%

## CC(C)=CCC[C@](C)(O[C@@H]1O[C@H](CO)[C@@H](O)[C@H](O)[C@H]1O)[C@H]1CC[C@]2(C)[C@@H]1[C@H](O)C[C@@H]1[C@@]3(C)CC[C@H](O[C@@H]4O[C@H](CO)[C@@H](O)[C@H](O)[C@H]4O[C@@H]4O[C@H](CO)[C@@H](O)[C@H](O)[C@H]4O)C(C)(C)[C@@H]3CC[C@]12C [Rd, ginsenoside Rd]
Caco-2 cell monolayers
  Papp(apical→basolateral): > 0.1^c ×10^-6 cm/s
  Papp(basolateral→apical): > 0.1^c ×10^-6 cm/s
  apparent permeability in Caco-2 cell monolayers: > 10^-7 cm/s
[1]
  solubility at 5 min: > 10000 µg/mL
[2]
  determination in rat plasma at the planned successive PK time points: could be determined
  detection in rat plasma: could be detected
[2]; 0.4 g/kg
  AUC(0-inf): 340 ± 348 ng·h/mL
  AUC(0-t): 254 ± 236 ng·h/mL
  MRT inf: 12.8 ± 8.78 h
  MRT last: 8.88 ± 3.79 h
  Tmax: 9 ± 4.24 h
[2]; [5]
  Cmax: 24.5 ± 4.04 ng/mL
[2]; [6]
  half-life: 338 ± 353 min
[2]; 0.8 g/kg
  AUC(0-inf): 378 ± 56.4 ng·h/mL
  AUC(0-t): 281 ± 28.1 ng·h/mL
  MRT inf: 17.3 ± 2.01 h
  MRT last: 10.7 ± 2.31 h
  Tmax: 2.25 ± 3.25 h
[2]; [7]
  Cmax: > 20 ng/mL
[2]; [8]
  Cmax: 37.2 ± 26.3 ng/mL
[2]; [9]
  half-life: > 156 min
[2]; [10]
  half-life: 512 ± 265 min
[2]; [11]
  Cltot: 37.45 ± 38.33 L/h/kg
[2]; [12]
  Cltot: 21.02 ± 18.63 L/h/kg
[3]; [13]
  Histopathology of heart tissue (H&E): remarkably severe histological damage with extensive myocardial lysis and architecture wrecking; also recorded: extremely severe histological damage with extensive myocardial lysis and architecture wrecking
[3]
  ECG (lead II) findings on the fifth day of the trial: ST segment elevated
[4]; [14]
  Stability: Measured: 1.93 ± 0.23 ng/mL
  Stability: RE: -3.59%
[4]; [15]
  Stability: Measured: 406.43 ± 27.13 ng/mL
  Stability: RE: 1.61%
[4]; [16]
  Stability: Measured: 1489.53 ± 52.70 ng/mL
  Stability: RE: -6.90%
[4]; [17]
  Stability: Measured: 1.65 ± 0.33 ng/mL
  Stability: RE: -17.56%
[4]; [18]
  Stability: Measured: 449.87 ± 18.67 ng/mL
  Stability: RE: 12.47%
[4]; [19]
  Stability: Measured: 1891.74 ± 134.38 ng/mL
  Stability: RE: 18.23%
[4]; [20]
  Stability: Measured: 1.81 ± 0.18 ng/mL
  Stability: RE: -9.59%
[4]; [21]
  Stability: Measured: 438.01 ± 11.23 ng/mL
  Stability: RE: 9.50%
[4]; [22]
  Stability: Measured: 1768.72 ± 60.05 ng/mL
  Stability: RE: 10.54%

From PMC6308302, “Identification of Pharmacokinetic Markers for Guanxin Danshen Drop Pills in Rats by Combination of Pharmacokinetics, Systems Pharmacology, and Pharmacodynamic Assays” (Frontiers in Pharmacology, 2018)
